Measured values: patent US8163909B2, “Substituted hydroxyethyl amine compounds as beta-secretase modulators and methods of use” (Amgen Inc., priority 2007, dated 2012)
Where two headings read alike, the source gives them in different places.

Assays:
[1] = molecular target: Beta Secretase enzyme (BACE) (Homo sapiens, UniProt P56817); experiment: In vitro enzymatic BACE FRET (fluorescence resonance energy transfer) assay; assay type: biochemical;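 also: fluorescence read after 1 h with 50 nM quenched peptide substrate spanning the BACE cleavage site, in pH 4.2 acetate buffer containing 10% DMSO and nonionic detergent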
Sequence of Beta Secretase enzyme (BACE) (P56817 46-501): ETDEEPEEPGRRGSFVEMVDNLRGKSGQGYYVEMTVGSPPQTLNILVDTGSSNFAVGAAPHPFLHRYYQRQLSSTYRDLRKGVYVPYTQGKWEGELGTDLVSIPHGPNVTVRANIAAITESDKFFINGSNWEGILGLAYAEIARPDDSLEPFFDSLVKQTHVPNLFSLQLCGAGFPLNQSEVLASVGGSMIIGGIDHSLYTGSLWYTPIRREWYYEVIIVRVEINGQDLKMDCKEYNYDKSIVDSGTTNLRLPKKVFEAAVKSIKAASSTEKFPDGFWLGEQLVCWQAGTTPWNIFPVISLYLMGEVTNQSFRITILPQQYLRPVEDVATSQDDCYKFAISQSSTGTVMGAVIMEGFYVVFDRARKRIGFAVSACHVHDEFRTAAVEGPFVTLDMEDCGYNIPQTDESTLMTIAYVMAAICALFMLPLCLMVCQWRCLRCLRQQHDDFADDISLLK

[2] = tested on: Aβ40 in conditioned medium of cells stably expressing Amyloid Precursor Protein (APP); experiment: In vitro BACE cell-based assay (Aβ40 in conditioned medium, sandwich ELISA); settings: Homo sapiens;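 also: compounds added as a dilution series, secreted peptide quantified by europium time-resolved fluorescence readout, potency fitted from percent of control versus compound concentration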
[3] = Microsomal stability assay, rat liver microsomes;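 also: rat liver microsomes (0.25 mg/mL) with about 1 µM compound plus 1 mM NADPH, pH 7.4, 37 °C for 30 min, parent left measured by LC-MS/MS against 0 min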
CYP3A4 (CYP3A) = CYP3A4 (CYP3A) (Homo sapiens, UniProt P08684); experiment: in vitro; settings: microsomes, pH 7.4
Sequence of CYP3A4 (CYP3A) (P08684 2-503): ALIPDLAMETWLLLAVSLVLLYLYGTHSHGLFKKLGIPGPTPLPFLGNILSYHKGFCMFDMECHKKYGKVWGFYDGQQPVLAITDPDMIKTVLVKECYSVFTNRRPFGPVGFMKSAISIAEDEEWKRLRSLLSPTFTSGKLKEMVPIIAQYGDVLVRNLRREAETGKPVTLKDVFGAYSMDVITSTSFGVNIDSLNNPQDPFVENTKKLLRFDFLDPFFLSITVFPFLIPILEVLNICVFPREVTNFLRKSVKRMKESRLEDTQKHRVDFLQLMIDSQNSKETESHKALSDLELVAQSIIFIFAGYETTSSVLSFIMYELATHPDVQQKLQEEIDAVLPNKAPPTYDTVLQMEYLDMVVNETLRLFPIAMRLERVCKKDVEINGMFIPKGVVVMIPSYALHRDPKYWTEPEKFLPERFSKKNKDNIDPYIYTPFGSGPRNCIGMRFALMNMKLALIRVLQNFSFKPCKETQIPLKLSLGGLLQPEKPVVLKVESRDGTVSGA

[4] = Microsomal stability assay, human liver microsomes;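 also: pooled human liver microsomes at 0.25 mg/mL with 1 µM compound and NADPH at 37 °C, pH 7.4, for 30 min, unchanged parent quantified by LC-MS/MS against the 0 min sample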
CYP2D6 = CYP2D6 (Homo sapiens, UniProt P10635); experiment: CYP2D6 inhibition assay (bufuralol, pooled human liver microsomes)
Sequence of CYP2D6 (P10635 whole entry): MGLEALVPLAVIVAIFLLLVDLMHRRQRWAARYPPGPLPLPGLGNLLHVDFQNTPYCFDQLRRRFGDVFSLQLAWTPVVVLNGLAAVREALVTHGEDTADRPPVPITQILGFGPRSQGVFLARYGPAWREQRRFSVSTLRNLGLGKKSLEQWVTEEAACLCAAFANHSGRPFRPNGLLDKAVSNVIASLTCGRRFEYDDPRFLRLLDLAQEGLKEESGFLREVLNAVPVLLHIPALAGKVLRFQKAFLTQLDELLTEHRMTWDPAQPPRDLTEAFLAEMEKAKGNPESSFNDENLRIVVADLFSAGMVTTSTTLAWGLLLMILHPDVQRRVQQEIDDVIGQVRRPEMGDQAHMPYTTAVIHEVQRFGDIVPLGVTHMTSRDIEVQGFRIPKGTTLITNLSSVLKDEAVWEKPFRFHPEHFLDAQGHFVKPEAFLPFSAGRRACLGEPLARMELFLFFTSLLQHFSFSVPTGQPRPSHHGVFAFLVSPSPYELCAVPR

[5] = BACE enzyme assay, read-out: BACE1 FRET assay
[6] = HEK293, HEK cells, read-out: HEK cell assay
[7] = 2D6 IC50 (uM), CYP enzyme inhibition
[8] = BACE enzyme assay IC50, read-out: BACE1 FRET assay
[9] = HEK293, HEK cell-based assay IC50, read-out: HEK cell assay
[10] = 2D6 IC50 (uM), CYP2D6 inhibition
[11] = read-out: BACE1 FRET assay (IC50)
[12] = HEK293, HEK cells, read-out: HEK cell assay (IC50)

## CC(=O)N[C@@H](Cc1ccc(F)cc1)[C@H](O)CN[C@H]1CC2(CCC2)Oc2c1cc(CC(C)(C)C)nc2N1CCOCC1 [Example 421, N-((2S,3R)-4-((S)-2,2-spirocyclobutyl-8-morpholino-6-neopentyl-3,4-dihydro-2H-pyrano[2,3-c]pyridin-4-ylamino)-1-(4-fluorophenyl)-3-hydroxybutan-2-yl)acetamide]
[1]; [5]
  IC50: 0.134 µM
[2]; [6]
  IC50: 0.054 µM
[3]; rat liver microsomal data
  RLM: 151 µL/min/mg
CYP3A4 (CYP3A)
  IC50: 1300 nM
[4]; human liver microsomal data
  HLM: 211 µL/min/mg
CYP2D6; [7]
  IC50: 3.6 µM

## CNc1nc(CC(C)C)cc2c1OC1(CCC1)C[C@@H]2NC[C@@H](O)[C@H](Cc1ccc2c(c1)OCO2)NC(=O)COC [compound 681]
[1]; [8]
  IC50: 0.064 µM
[2]; [9]
  IC50: 0.014 µM
[3]; rat liver microsomes
  RLM: 392 µL/min/mg
CYP3A4 (CYP3A)
  IC50: 800 nM
[4]; human liver microsomes
  HLM: 197 µL/min/mg
CYP2D6; [10]
  IC50: 9.2 µM

## CO[C@H](C)C(=O)N[C@@H](Cc1cc(F)cc(Cl)c1)[C@H](O)CN[C@H]1CC2(CCC2)Oc2cnc(CC(C)(C)F)cc21 [compound 719]
[1]; [8]
  IC50: 0.024 µM
[2]; [9]
  IC50: 0.13 µM
[3]; rat liver microsomes
  RLM: 775 µL/min/mg
CYP3A4 (CYP3A)
  IC50: 400 nM
[4]; human liver microsomes
  HLM: 515 µL/min/mg
CYP2D6; [10]
  IC50: 2.4 µM

## CC(=O)N[C@@H](Cc1ccc(F)cc1)[C@H](O)CN[C@H]1CC2(CCNC2)Oc2cnc(CC(C)(C)C)cc21 (stereo partly drawn) [compound 702]
[1]; [8]
  IC50: 36.4 µM
[2]; [9]
  IC50: 0.454 µM
[3]; rat liver microsomes
  RLM: 26 µL/min/mg
CYP3A4 (CYP3A)
  IC50: 1800 nM
[4]; human liver microsomes
  HLM: 14 µL/min/mg
CYP2D6; [10]
  IC50: 13.5 µM

## CO[C@H](C)C(=O)N[C@@H](Cc1cccc(F)c1)[C@H](O)CN[C@H]1CC2(CCC2)Oc2c(-c3ccncc3)cc(CC(C)(C)O)cc21 [compound 567]
[1]; [5]
  IC50: 0.039 µM
[2]; [6]
  IC50: 0.009 µM
[3]; rat liver microsomal data
  RLM: 120 µL/min/mg
CYP3A4 (CYP3A)
  IC50: 100 nM
[4]; human liver microsomal data
  HLM: 67 µL/min/mg
CYP2D6; [7]
  IC50: 2.2 µM

## COCC(=O)N[C@@H](Cc1cc(F)cc(F)c1)[C@H](O)CN[C@H]1CC2(CCC2)Oc2c1cc(C1CC1)cc2-n1ccnc1 [compound 706]
[1]; [8]
  IC50: 0.062 µM
[2]; [9]
  IC50: 0.02 µM
[3]; rat liver microsomes
  RLM: 33 µL/min/mg
CYP3A4 (CYP3A)
  IC50: 100 nM
[4]; human liver microsomes
  HLM: 41 µL/min/mg
CYP2D6; [10]
  IC50: 0.3 µM

## CC(=O)N[C@@H](Cc1cccc(F)c1)[C@H](O)CN[C@H]1CC2(CCC2)Oc2c(-c3ccncc3)cc(Cl)cc21 [compound 595]
[1]; [11]
  IC50: 0.077 µM
[2]; [12]
  IC50: 0.051 µM
[3]; rat liver microsomes
  RLM: 736 µL/min/mg
CYP3A4 (CYP3A)
  IC50: 100 nM
[4]; human liver microsomes
  HLM: 147 µL/min/mg
CYP2D6; 2D6 IC50, CYP2D6 inhibition
  IC50: 0.5 µM

## CC(=O)N[C@@H](Cc1ccc(F)cc1)[C@H](O)CN[C@H]1CC2(CCC2)Oc2c1cc(CC(C)(C)C)nc2Nc1ccccc1 [compound 610]
[1]; [11]
  IC50: 0.199 µM
[2]; [12]
  IC50: > 10 µM
[3]; rat liver microsomes
  RLM: 213 µL/min/mg
CYP3A4 (CYP3A)
  IC50: ≥ 27000 nM
[4]; human liver microsomes
  HLM: 102 µL/min/mg
CYP2D6; 2D6 IC50, CYP2D6 inhibition
  IC50: ≥ 27 µM

## CO[C@H](C)C(=O)N[C@@H](Cc1ccc(F)c(-c2nccs2)c1)[C@H](O)CN[C@H]1CC2(CCC2)Oc2ncc(CC(C)C)cc21 [compound 768, (2R)-N-((1S,2R)-1-(4-fluoro-3-(1,3-thiazol-2-yl)benzyl)-2-hydroxy-3-(((4′S)-6′-(2-methylpropyl)-3′,4′-dihydrospiro[cyclobutane-1,2′-pyrano[2,3-b]pyridin]-4′-yl)amino)propyl)-2-methoxypropanamide]
[1]; BACE enzyme assay, IC50's in uM, read-out: BACE1 FRET assay
  IC50: 0.022 µM
[2]; HEK293, HEK cell-based assay, IC50's in uM, read-out: HEK cell assay
  IC50: 0.105 µM
[3]; rat liver microsomal data
  RLM: 70 µL/min/mg
CYP3A4 (CYP3A)
  IC50: 100 nM
[4]; human liver microsomal data
  HLM: 39 µL/min/mg
CYP2D6; [7]
  IC50: 0.4 µM

## CO[C@@H](C)C(=O)N[C@@H](Cc1ccc2c(c1)OCO2)[C@H](O)CN[C@H]1CC2(CCC2)Cc2sc(CC(C)(C)C)cc21 [compound 456]
[1]; Table 2, read-out: BACE1 FRET assay
  IC50: 0.359 µM
[2]; HEK293, Table 2, HEK cells, read-out: HEK cell assay
  IC50: 0.723 µM
[3]; rat liver microsomal data
  RLM: 97 µL/min/mg
CYP3A4 (CYP3A)
  IC50: 900 nM
[4]; human liver microsomal data
  HLM: 74 µL/min/mg
CYP2D6; 2D6 IC50, CYP enzyme inhibition
  IC50: 3.1 µM

## CO[C@H](C)C(=O)N[C@@H](Cc1ccc(O)c(O)c1)[C@H](O)CN[C@H]1CC2(CCC2)Oc2ncc(CC(C)(C)C)cc21 [compound 651]
[1]; [11]
  IC50: 0.008 µM
[2]; [12]
  IC50: 0.012 µM
[3]; rat liver microsomes
  RLM: 147 µL/min/mg
CYP3A4 (CYP3A)
  IC50: 1600 nM
[4]; human liver microsomes
  HLM: 171 µL/min/mg
CYP2D6; 2D6 IC50, CYP2D6 inhibition
  IC50: 10.8 µM
